Data as given in article PMC6979384, “Characterization of the plant homeodomain (PHD) reader family for their histone tail interactions” (Epigenetics & Chromatin, 2020).

Key:
Assay in all cases: Histone peptide microarray
Assay type in all cases: binding, human
AIRE (PP) = conditions: GST-tagged AIRE (PP); histone peptide array; arrays performed twice, n of 4
In short: (§1)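 Binding read as mean relative signal from 4 replicates; microarray held 293 synthetic histone peptides with single or combinatorial PTMs. Each GST-tagged PHD reader was applied at 0.5 μM using the optimized Petell protocol.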

BAZ2B = conditions: GST-tagged BAZ2B; histone peptide array; arrays performed twice, n of 4
In short: as §1

BPTF (PB) = conditions: GST-tagged BPTF (PB = PHD + Bromodomain); histone peptide array; arrays performed twice, n of 4
In short: as §1

CHD4 (PPCC) = conditions: GST-tagged CHD4 (PPCC = Dual PHD + Dual Chromodomain); histone peptide array; arrays performed twice, n of 4
In short: as §1

CHD5 (PCC) = conditions: GST-tagged CHD5 (PCC = PHD + Dual Chromodomain); histone peptide array; arrays performed twice, n of 4
In short: as §1

CHD5 (PPCC) = conditions: GST-tagged CHD5 (PPCC = Dual PHD + Dual Chromodomain); histone peptide array; arrays performed twice, n of 4
In short: as §1

DIDO1 = conditions: GST-tagged DIDO1; histone peptide array; arrays performed twice, n of 4
In short: as §1

DPF2 (PPC2W2) = conditions: GST-tagged DPF2 (PPC2W2 = Dual PHD + C2W2-type Zn-finger); histone peptide array; arrays performed twice, n of 4
In short: as §1

ING1 = conditions: GST-tagged ING1; histone peptide array; arrays performed twice, n of 4
In short: as §1

ING2 = conditions: GST-tagged ING2; histone peptide array; arrays performed twice, n of 4
In short: as §1

ING3 = conditions: GST-tagged ING3; histone peptide array; arrays performed twice, n of 4
In short: as §1

ING4 = conditions: GST-tagged ING4; histone peptide array; arrays performed twice, n of 4
In short: as §1

ING5 = conditions: GST-tagged ING5; histone peptide array; arrays performed twice, n of 4
In short: as §1

KDM4C (TTP) = conditions: GST-tagged KDM4C (TTP = Tandem Tudor domain + PHD); histone peptide array; arrays performed twice, n of 4
In short: as §1

KDM5A (1) = conditions: GST-tagged KDM5A (1); histone peptide array; arrays performed twice, n of 4
In short: as §1

KDM5A (3) = conditions: GST-tagged KDM5A (3); histone peptide array; arrays performed twice, n of 4
In short: as §1

KDM5B (1) = conditions: GST-tagged KDM5B (1); histone peptide array; arrays performed twice, n of 4
In short: as §1

KDM5B (3) = conditions: GST-tagged KDM5B (3); histone peptide array; arrays performed twice, n of 4
In short: as §1

KDM7A = conditions: GST-tagged KDM7A; histone peptide array; arrays performed twice, n of 4
In short: as §1

MLL5 = conditions: GST-tagged MLL5; histone peptide array; arrays performed twice, n of 4
In short: as §1

MORC3 (CW) = conditions: GST-tagged MORC3 (CW = CW-type Zn-finger); histone peptide array; arrays performed twice, n of 4
In short: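 GST-tagged PHD readers, 0.5 μM, probed on a microarray of 293 synthetic histone peptides carrying single or combinatorial PTMs (optimized Petell protocol). Signals are averaged over 4 replicates and expressed as relative binding.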

PHF13 = conditions: GST-tagged PHF13; histone peptide array; arrays performed twice, n of 4
In short: as §1

PHF21A = conditions: GST-tagged PHF21A; histone peptide array; arrays performed twice, n of 4
In short: as §1

PHF23 = conditions: GST-tagged PHF23; histone peptide array; arrays performed twice, n of 4
In short: as §1

PHF2 = conditions: GST-tagged PHF2; histone peptide array; arrays performed twice, n of 4
In short: as §1

PHF8 = conditions: GST-tagged PHF8; histone peptide array; arrays performed twice, n of 4
In short: as §1

PHRF1 (RP) = conditions: GST-tagged PHRF1 (RP); histone peptide array; arrays performed twice, n of 4
In short: as §1

RAG2 = conditions: GST-tagged RAG2; histone peptide array; arrays performed twice, n of 4
In short: as §1

SP140L = conditions: GST-tagged SP140L; histone peptide array; arrays performed twice, n of 4
In short: as §1

TAF3 = conditions: GST-tagged TAF3; histone peptide array; arrays performed twice, n of 4
In short: as §1

TRIM66 (PB) = conditions: GST-tagged TRIM66 (PB = PHD + Bromodomain); histone peptide array; arrays performed twice, n of 4
In short: as §1

| Substance | Array Heatmap signal, AIRE (PP) (AIRE (PP)) | Array Heatmap signal, BAZ2B (BAZ2B) | Array Heatmap signal, BPTF (PB) (BPTF (PB)) | Array Heatmap signal, CHD4 (PPCC) (CHD4 (PPCC)) | Array Heatmap signal, CHD5 (PCC) (CHD5 (PCC)) | Array Heatmap signal, CHD5 (PPCC) (CHD5 (PPCC)) | Array Heatmap signal, DIDO1 (DIDO1) | Array Heatmap signal, DPF2 (PPC2W2) (DPF2 (PPC2W2)) | Array Heatmap signal, ING1 (ING1) | Array Heatmap signal, ING2 (ING2) | Array Heatmap signal, ING3 (ING3) | Array Heatmap signal, ING4 (ING4) | Array Heatmap signal, ING5 (ING5) | Array Heatmap signal, KDM4C (TTP) (KDM4C (TTP)) | Array Heatmap signal, KDM5A (1) (KDM5A (1)) | Array Heatmap signal, KDM5A (3) (KDM5A (3)) | Array Heatmap signal, KDM5B (1) (KDM5B (1)) | Array Heatmap signal, KDM5B (3) (KDM5B (3)) | Array Heatmap signal, KDM7A (KDM7A) | Array Heatmap signal, MLL5 (MLL5) | further results |
| --- | --- | --- | --- | --- | --- | --- | --- | --- | --- | --- | --- | --- | --- | --- | --- | --- | --- | --- | --- | --- | --- |
| H4K12ac + K16ac + K20me1: H4 11-27 | 0.384 | 0.4211 | 0.3283 | 0.5474 | 0.6765 | 0.5143 | 0.7187 | 0.6625 | 0.5716 | 0.5978 | 0.451 | 0.4334 | 0.3345 | 0.4269 | 0.4176 | 0.4519 | 0.5461 | 0.4151 | 0.3032 | 0.5572 | Array Heatmap signal, MORC3 (CW) (MORC3 (CW)): 0.3309; Array Heatmap signal, PHF13 (PHF13): 0.5671; Array Heatmap signal, PHF21A (PHF21A): 0.4255; Array Heatmap signal, PHF23 (PHF23): 0.5291; Array Heatmap signal, PHF2 (PHF2): 0.5516; Array Heatmap signal, PHF8 (PHF8): 0.3408; Array Heatmap signal, PHRF1 (RP) (PHRF1 (RP)): 0.4296; Array Heatmap signal, RAG2 (RAG2): 0.2293; Array Heatmap signal, SP140L (SP140L): 0.3459; Array Heatmap signal, TAF3 (TAF3): 0.2511; Array Heatmap signal, TRIM66 (PB) (TRIM66 (PB)): 0.5407 |
| H4K12ac + K16ac + K20me2: H4 11-27 | 0.4913 | 0.5022 | 0.3936 | 0.5676 | 0.8229 | 0.6049 | 0.7262 | 0.6546 | 0.5241 | 0.6089 | 0.5264 | 0.4756 | 0.405 | 0.537 | 0.4994 | 0.5092 | 0.6899 | 0.5172 | 0.418 | 0.5834 | Array Heatmap signal, MORC3 (CW) (MORC3 (CW)): 0.4076; Array Heatmap signal, PHF13 (PHF13): 0.6561; Array Heatmap signal, PHF21A (PHF21A): 0.4824; Array Heatmap signal, PHF23 (PHF23): 0.5618; Array Heatmap signal, PHF2 (PHF2): 0.4604; Array Heatmap signal, PHF8 (PHF8): 0.3877; Array Heatmap signal, PHRF1 (RP) (PHRF1 (RP)): 0.4498; Array Heatmap signal, RAG2 (RAG2): 0.281; Array Heatmap signal, SP140L (SP140L): 0.3577; Array Heatmap signal, TAF3 (TAF3): 0.2922; Array Heatmap signal, TRIM66 (PB) (TRIM66 (PB)): 0.6093 |
| H4K12ac + K16ac + K20me3: H4 11-27 | 0.5868 | 0.5532 | 0.3647 | 0.6123 | 0.9097 | 0.6012 | 0.6408 | 0.7109 | 0.5304 | 0.5812 | 0.4869 | 0.5105 | 0.3933 | 0.5508 | 0.5006 | 0.4096 | 0.6527 | 0.5038 | 0.4502 | 0.5614 | Array Heatmap signal, MORC3 (CW) (MORC3 (CW)): 0.4027; Array Heatmap signal, PHF13 (PHF13): 0.6523; Array Heatmap signal, PHF21A (PHF21A): 0.52; Array Heatmap signal, PHF23 (PHF23): 0.5129; Array Heatmap signal, PHF2 (PHF2): 0.4705; Array Heatmap signal, PHF8 (PHF8): 0.3563; Array Heatmap signal, PHRF1 (RP) (PHRF1 (RP)): 0.4386; Array Heatmap signal, RAG2 (RAG2): 0.2525; Array Heatmap signal, SP140L (SP140L): 0.368; Array Heatmap signal, TAF3 (TAF3): 0.2674; Array Heatmap signal, TRIM66 (PB) (TRIM66 (PB)): 0.6534 |
